# Target: T1, Human Recombinant Matriptase 2 (Homo sapiens, UniProt Q8IU80)
# T1 construct: made in house
# T1 sequence (Q8IU80 1-811): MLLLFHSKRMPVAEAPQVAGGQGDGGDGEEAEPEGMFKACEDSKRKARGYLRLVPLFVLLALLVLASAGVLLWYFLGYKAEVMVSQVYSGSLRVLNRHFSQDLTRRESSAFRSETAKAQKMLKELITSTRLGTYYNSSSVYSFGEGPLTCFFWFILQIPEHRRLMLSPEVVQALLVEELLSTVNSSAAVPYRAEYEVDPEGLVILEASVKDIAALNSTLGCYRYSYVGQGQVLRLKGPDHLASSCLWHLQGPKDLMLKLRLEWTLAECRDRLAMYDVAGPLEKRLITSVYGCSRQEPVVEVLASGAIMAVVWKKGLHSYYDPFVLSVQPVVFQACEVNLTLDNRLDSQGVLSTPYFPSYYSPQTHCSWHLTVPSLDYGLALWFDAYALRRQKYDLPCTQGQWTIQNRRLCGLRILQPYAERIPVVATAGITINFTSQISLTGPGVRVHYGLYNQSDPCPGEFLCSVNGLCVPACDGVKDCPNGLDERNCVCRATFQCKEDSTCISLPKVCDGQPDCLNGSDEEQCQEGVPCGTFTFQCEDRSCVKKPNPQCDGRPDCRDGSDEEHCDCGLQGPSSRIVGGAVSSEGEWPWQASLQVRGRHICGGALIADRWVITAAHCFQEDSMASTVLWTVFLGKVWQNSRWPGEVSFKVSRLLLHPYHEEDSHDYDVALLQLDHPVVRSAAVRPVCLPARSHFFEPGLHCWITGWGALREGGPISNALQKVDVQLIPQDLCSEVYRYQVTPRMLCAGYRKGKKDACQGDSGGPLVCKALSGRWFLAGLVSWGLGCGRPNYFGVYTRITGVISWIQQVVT
# Test: Matriptase 2 inhibition, fluorescence based assay (Method I)
# Type: biochemical
# Details: Table A; Ki of Matriptase-2; read-out: Mat-2 Ki
# Experimental: • Method I: Test compounds were evaluated for their potential to inhibit Human Recombinant Matriptase 2 (in-house) using fluorescence based assay. The concentration of Recombinant Matriptase 2 and the substrate used in the assay was: 3.5 nM (In-house Matriptase 2) and 62 μM (Boc-Gln-Ala-Arg-7-amido-4-methyl coumarin hydrobromide −Cat log: I-1550 from Bachem) respectively. The assay buffer used was 50 mM TRIS pH 7.5, 150 mM NaCl, 0.01% Gelatin TCL059 Himedia). The assay was performed using 384 well black flat bottom plate from grenier (Cat log: 781076) at 25° C. The enzyme and compound were preincubated for 30 mins, the plate was read at 60 mins after substrate addition at wavelength Ex: 360/Em: 480 nm. The final assay volume was 20 μl. A stock solution of compounds was initially prepared in DMSO and appropriate dilutions were made and IC50 was determined for all the compounds (final DMSO conc in the assay was 1%). All the measurements were carried out using the Spectramax M5, Molecular devices.
# To determine Ki values, dose response curves were generated by plotting percentage inhibition as a function of inhibitor concentration and the data was fitted to sigmoidal non-linear regression equation (variable slope) using Graph Pad prism software V8.
row,Compound,Ki
1,"CC(CCN(C)C)S(=O)(=O)Nc1cc(Cn2c(C(=O)O)cc3ccc(CN)nc32)c2ccccc2c1 (racemic) [Compound 8, 6-(aminomethyl)-1-((3-((3-(dimethylamino)-1-methylpropyl)sulfonamido)naphthalen-1-yl)methyl)-1H-pyrrolo[2,3-b]pyridine-2-carboxylic acid]",0.1 to 0.5 µM
2,"C[C@@H](c1ccccc1)S(=O)(=O)Nc1cc(Cn2c(C(=O)OCC3CCN(C)CC3)cc3ccc(CN)nc32)c2ccccc2c1 (racemic) [Compound 11, (1-methylpiperidin-4-yl)methyl 6-(aminometh-yl)-1-{[3-(1-phenyl-ethanesulfonamido)naph-thalen-1-yl]methyl}-1H-pyrrolo[2,3-b]pyridine-2-carboxylate]",≤ 0.1 µM
3,"CN1CCC(COC(=O)c2cc3ccc(CN)nc3n2Cc2cc(NS(=O)(=O)[C@H](F)c3ccccc3)cc3ccccc23)CC1 (racemic) [Compound 23, (1-methylpiperidin-4-yl)methyl 6-(amino-methyl)-1-({3-[fluoro-(phenyl)methanesulfon-amido]naphthalen-1-yl}-methyl)-1H-pyrrolo[2,3-b]pyridine-2-carboxylate]",≤ 0.1 µM
4,"CN1CCC[C@H](COC(=O)c2cc3ccc(CN)nc3n2Cc2cc(NS(=O)(=O)Cc3ccccc3)cc3ccccc23)C1 (racemic) [Compound 24, (1-methylpiperidin-3-yl)methyl 6-(amino-methyl)-1-{[3-(phenyl-methanesulfonamido)-naphthalen-1-yl]methyl}-1H-pyrrolo[2,3-b]pyr-idine-2-carboxylate]",≤ 0.1 µM
5,"CN1CC[C@H](COC(=O)c2cc3ccc(CN)nc3n2Cc2cc(NS(=O)(=O)Cc3ccccc3)cc3ccccc23)CC1=O (racemic) [Compound 30, rac-[(4R)-1-methyl-2-oxopiperidin-4-yl]meth-yl 6-(aminomethyl)-1-{[3-(phenylmethane-sulfonamido)naphthalen-1-yl]methyl}-1H-pyr-rolo[2,3-b]pyridine-2-carboxylate]",≤ 0.1 µM
6,"NCc1ccc2cc(C(=O)OCC[C@H]3CCCCN3)n(Cc3cc(NS(=O)(=O)Cc4ccccc4)cc4ccccc34)c2n1 (racemic) [Compound 32, 2-(piperidin-2-yl)ethyl 6-(aminomethyl)-1-{[3-(phenylmethanesulfon-amido)naphthalen-1-yl]-methyl}-1H-pyrrolo[2,3-b]pyridine-2-carboxylate]",≤ 0.1 µM
7,"CN1CC[C@H](CNC(=O)c2cc3ccc(CN)nc3n2Cc2cc(NS(=O)(=O)Cc3ccccc3)cc3ccccc23)CC1=O (racemic) [Compound 37, rac-6-(aminomethyl)-N-{[(4R)-1-methyl-2-oxo-piperidin-4-yl]methyl}-1-{[3-(phenylmethane-sulfonamido)naphthalen-1-yl]methyl}-1H-pyr-rolo[2,3-b]pyridine-2-carboxamide]",≤ 0.1 µM
8,"CN1CCN[C@@H](COC(=O)c2cc3ccc(CN)nc3n2Cc2cc(NS(=O)(=O)Cc3ccccc3)cc3ccccc23)C1 (racemic) [Compound 41, (4-methylpiperazin-2-yl)methyl 6-(aminometh-yl)-1-{[3-(phenylmeth-ane-sulfonamido)naph-thalen-1-yl]methyl}-1H-pyrrolo[2,3-b]pyridine-2-carboxylate]",≤ 0.1 µM
9,"C[C@H](OC(=O)c1cc2ccc(CN)nc2n1Cc1cc(NS(=O)(=O)Cc2ccccc2)cc2ccccc12)C1CCN(C)CC1 (racemic) [Compound 48, 1-(1-methylpiperidin-4-ylethyl 6-(aminomethyl)-1-{[3-(phenylmethane-sulfonamido)naphthalen-1-yl]methyl}-1H-pyr-rolo[2,3-b]pyridine-2-carboxylate]",≤ 0.1 µM
10,"CN1CCN(C)[C@@H](COC(=O)c2cc3ccc(CN)nc3n2Cc2cc(NS(=O)(=O)Cc3ccccc3)cc3ccccc23)C1 (racemic) [Compound 51, (1,4-dimethylpiperazin-2-yl)methyl 6-(amino-methyl)-1-{[3-(phenyl-methanesulfonamido)-naphthalen-1-yl]methyl}-1H-pyrrolo[2,3-b]pyr-idine-2-carboxylate]",≤ 0.1 µM
11,"CC[C@@H](COC(=O)c1cc2ccc(CN)nc2n1Cc1cc(NS(=O)(=O)Cc2ccccc2)cc2ccccc12)N(C)C (racemic) [Compound 54, rac-(2R)-2-(dimethyl-amino)butyl 6-(amino-methyl)-1-{[3-(phenyl-methanesulfonamido)-naphthalen-1-yl]methyl}-1H-pyrrolo[2,3-b]pyr-idine-2-carboxylate]",≤ 0.1 µM
12,"CN1CCCC[C@@H]1COC(=O)c1cc2ccc(CN)nc2n1Cc1cc(NS(=O)(=O)Cc2ccccc2)cc2ccccc12 (racemic) [Compound 63, (1-methylpiperidin-2-yl)methyl 6-(aminometh-yl)-1-{[3-(phenylmeth-anesulfonamido)naph-thalen-1-yl]lmethyl}-1H-pyrrolo[2,3-b]pyridine-2-carboxylate]",≤ 0.1 µM
13,"CN1CCO[C@@H](COC(=O)c2cc3ccc(CN)nc3n2Cc2cc(NS(=O)(=O)Cc3ccccc3)cc3ccccc23)C1 (racemic) [Compound 64, (4-methylmorpholin-2-yl)methyl 6-(aminometh-yl)-1-{[3-(phenylmeth-anesulfonamido)naph-thalen-1-yl]methyl}-1H-pyrrolo[2,3-b]pyridine-2-carboxylate]",≤ 0.1 µM
14,"C[C@@H](c1ccccc1)S(=O)(=O)Nc1cc(Cn2c(C(=O)O)cc3ccc(CN)nc32)c2ccccc2c1 (racemic) [Compound 73, 6-(aminomethyl)-1-{[3-(1-phenylethanesulfon-amido)naphthalen-1-yl]-methyl}-1H-pyrrolo[2,3-b]pyridine-2-carboxylic acid]",≤ 0.1 µM
15,"CC(=O)O[C@H](C)OC(=O)c1cc2ccc(CN)nc2n1Cc1cc(NS(=O)(=O)Cc2ccccc2)cc2ccccc12 (racemic) [Compound 89, 1-[6-(aminomethyl)-1-{[3-(phenylmethanesul-fonamido)naphthalen-1-yl]methyl}-1H-pyrrolo-[2,3-b]pyridine-2-carbon-yloxy]ethyl acetate]",0.1 to 0.5 µM
16,"NCc1ccc2cc(C(=O)O)n(Cc3cc(NS(=O)(=O)[C@H](F)c4ccccc4)cc4ccccc34)c2n1 (racemic) [Compound 98, 6-(aminomethyl)-1-({3-[fluoro(phenyl)methane-sulfonamido]naphthalen-1-yl}methyl)-1H-pyr-rolo[2,3-b]pyridine-2-carboxylic acid]",0.1 to 0.5 µM
17,"CN1CCC[C@H](OC(=O)c2cc3ccc(CN)nc3n2Cc2cc(NS(=O)(=O)Cc3ccccc3)cc3ccccc23)C1 (racemic) [Compound 99, 1-methylpiperidin-3-yl 6-(aminomethyl)-1-{[3-(phenylmethanesulfon-amido)naphthalen-1-yl]-methyl}-1H-pyrrolo[2,3-b]pyridine-2-carboxylate]",0.1 to 0.5 µM
18,"NCc1ccc2cc(C(=O)OC[C@H]3CCCN3)n(Cc3cc(NS(=O)(=O)Cc4ccccc4)cc4ccccc34)c2n1 (racemic) [Compound 108, rac-[(2R)-pyrrolidin-2-yl]methyl 6-(aminometh-yl)-1-{[3-(phenylmeth-anesulfonamido)naph-thalen-1-yl]methyl}-1H-pyrrolo[2,3-b]pyridine-2-carboxylate]",0.1 to 0.5 µM
19,"CC(C)C(=O)O[C@H](C)OC(=O)c1cc2ccc(CN)nc2n1Cc1cc(NS(=O)(=O)Cc2ccccc2)cc2ccccc12 (racemic) [Compound 118, 1-[6-(aminomethyl)-1-{[3-(phenylmethanesul-fonamido)naphthalen-1-yl]methyl}-1H-pyrrolo-[2,3-b]pyridine-2-car-bonyloxylethyl 2-meth-ylpropanoate]",0.5 to 3 µM
20,"CCOC(=O)c1cc2ccc(CN)nc2n1Cc1cc(NS(=O)(=O)[C@@H](C)c2ccccc2)cc2ccccc12 (racemic) [Compound 119, ethyl 6-(aminomethyl)-1-{[3-(1-phenylethanesul-fonamido)naphthalen-1-yl]methyl}-1H-pyrrolo-[2,3-b]pyridine-2-car-boxylate]",0.5 to 3 µM
21,"C[C@H](OC(=O)c1ccccc1)OC(=O)c1cc2ccc(CN)nc2n1Cc1cc(NS(=O)(=O)Cc2ccccc2)cc2ccccc12 (racemic) [Compound 124, 1-[6-(aminomethyl)-1-{[3-(phenylmethanesul-fonamido)naphthalen-1-yl]methyl}-1H-pyrrolo-[2,3-b]pyridine-2-car-bonyloxy]ethyl benzoate]",0.5 to 3 µM
